Experimental data taken from publication PMC12320245 (International Journal of Biological Sciences, 2025).

Test system: TBI rats
Experiment: Controlled cortical impact TBI: Morris water maze
Type: in vivo, rat
Settings: vs TBI-vehicle
Description: This study used male Sprague-Dawley rats weighing 300-350 g and aged 8 weeks, obtained from DBL Co. (Chungcheongbuk-do, Republic of Korea). The rats were housed in a controlled environment with a temperature of 20 ± 2 °C, a relative humidity of 55 ± 5%, and a 12-hour light/dark cycle. They were provided ad libitum access to food and water. To minimize stress associated with transportation, animals underwent a one-week acclimatization period before the start of the experiments. All experimental procedures were conducted in compliance with the guidelines of the National Institutes of Health for the care and use of laboratory animals and were approved by the Hallym University Institutional Animal Care and Use Committee (protocol # Hallym 2022-23, approved on July 15, 2022). This manuscript follows the principles outlined in the Animal research: reporting in vivo experiments (ARRIVE) guidelines.
A controlled cortical impact (CCI) model was used to induce TBI in rats. Animals were anesthetized with 1-1.5% isoflurane in a 30:70 oxygen-to-nitrous oxide mixture and securely positioned in a stereotaxic frame. A 3 mm craniotomy was performed using a portable drill at a site 2.8 mm lateral to the midline and 3.0 mm posterior to Bregma. TBI was induced using an Impact One™ Stereotaxic Impactor (Leica Biosystems) equipped with a 3 mm flat-tip, set to deliver an impact at a velocity of 5 m/s and a depth of 3 mm. Throughout the procedure, body temperature was maintained at 36-37.5°C using a homeothermic blanket system to prevent hypothermia. […] At designated time points (3 hours, 24 hours, or 2 weeks post-injury), animals were euthanized via transcardial perfusion with saline, followed by 4% paraformaldehyde (PFA). Brains were post-fixed in 4% PFA for 1 hour, cryoprotected in 30% sucrose, and sectioned at a 30 μm thickness using a cryostat microtome (CM1850; Leica, Wetzlar, Germany). Brain sections were stored in cryoprotectant solution at 4°C until further analysis.
The MWM is a well-established behavioral test used to assess cognitive function in rodents. […] The following parameters were recorded during the training sessions: 1) escape latency (time taken to reach the platform), 2) distance traveled to locate the platform, and 3) the number of target crossings (times the platform location was crossed). […] The time spent in the target quadrant (where the platform had been located during training) and the number of crossings over the platform location were recorded. Behavioral data, including escape latency, distance traveled, target crossings, and time spent in the target quadrant, were tracked and analyzed using smart video-tracking software (Panlab, Carrer de l'Energia, Spain).

Compound: CC(C)c1ccc2oc3nc(N)c(C(=O)O)cc3c(=O)c2c1 [AMX, amlexanox]
- MWM distance to the hidden platform (days 8-12 post-TBI): reduced target distances
- MWM escape latency (days 8-12 post-TBI): shorter escape latency
- MWM platform crossings (probe trial): more frequent platform crossings
- MWM time spent in the target quadrant (probe trial): increased time spent in the target quadrant
